Test results: patent US8961933B2, “Process for the preparation of aqueous solutions of hyperpolarized molecules” (Bracco Imaging S.p.A., priority 2008, dated 2015)

What was measured:
[1] = Phase-transfer extraction of the hyperpolarized product into water: 13C signal enhancement and amount transferred; type: physicochemical
Method: After the field cycling application, the tube was quickly opened and 0.4 mL of degassed D2O were added; the tube was shaken vigorously for three seconds and then let stand for five seconds, during which phase separation occurred. The water solution was taken by a syringe and transferred into a tube for NMR acquisition.

[2] = Solubility in water; type: physicochemical; settings: compared with alkyne A
Excerpt: The symmetrical alkyne A, whose formula is reported below, was synthesized by transesterification of the acetylene bis-carboxylic acid bismethyl ester with diethyleneglycol monomethyl ether, in the presence of H2SO4 as catalyst.

Structure (SMILES) | transfer to the water phase ([1]; after hydrolysis with 0.25 M NaOH in D2O, CDCl3/acetone-d6 6:1) | quantity transferred into the water phase ([1]; CDCl3/acetone-d6 (6:1) versus D2O, equal volumes) | solubility in water [2]
O=C(O)CCC(=O)O [succinic acid] | All the succinic acid was transferred to the water phase |  | 
COCCOCCOC(=O)/C=C\C(=O)OCCOCCOC [B] |  | about 10 % of the total | higher than that of the alkyne A
